pIC50: −log10 of the molar value.
Assays:
human hepatocytes = experiment: Intrinsic clearance using human hepatocytes; format: in vitro ADME; details: for intrinsic clearance value: 5 μM, 0-24 hours; for inter-individual variability of intrinsic clearance: cryopreserved and fresh donor preparations
Method: Evaluation of the intrinsic clearance of the compounds using human hepatocytes: experimental protocol.
NB: The in vitro test described below on human liver cells is used to predict an important pharmacokinetic parameter: the metabolization by the liver for a given compound when it is administered to man.
Incubations of cryopreserved preparations of human hepatocytes (from IVT: IVT-TLN-180608 from In Vitro Technologies, inc. Baltimore, Md., USA) and fresh preparations of human hepatocytes (from Biopredic: HEP200239) were carried out in plates comprising 48 collagen-coated wells.
The kinetics were initiated by the addition, to the culture medium, of the compounds at a final concentration of 5 μM, in the absence or in the presence of 10 μM ketoconazole (CYP3A4 inhibitor). The incubation volume is 100 μl, the incubation time: 0-24 hours (standard kinetic points: 0-0.5-1-2-4-6-8-24 hours).
The kinetics were stopped by addition of acetonitrile/water, with corticosterone, as an internal standard. The cells were detached then lysed. The intracellular and extracellular media were recombined and frozen (−20° C.) in order to be stored until the LC-MS/MS analysis.
The combined extracellular and intracellular media were defrosted, submitted to ultrasound action, agitated with a vortex and centrifuged at 3000 g for 20 minutes. The supernatants were injected and analysed by LC-MS/MS.
The maximum initial in vitro rate was calculated for the specific metabolites of the P450 cytochromes and expressed in nmol/hour/million of cells. V=[concentration at T(n)−concentration at T(n−1)]/[T(n)−T(n−1)]
The intrinsic clearance was determined and expressed in ml/hour/million of cells Clint=dose/AUC0-24 h Dose=amount at T(0)(nmol/million of cells)
AUC0-24 h: calculated by WinNonlin, with a non-compartmental analysis modeling an intravenous injection of bolus type
From IVT: ● IVT, TLN group: person
From Biopredic: ● HEP200239: person, unknown

FLT1 = FLT1 (Homo sapiens, UniProt P17948); experiment: FLT1 kinase phosphorylation activity by radioactive labeling; format: biochemical; details: read-out: FLT1, concentration that inhibits 50% of the kinase activity
Sequence of FLT1 (P17948 27-1338, species assumed): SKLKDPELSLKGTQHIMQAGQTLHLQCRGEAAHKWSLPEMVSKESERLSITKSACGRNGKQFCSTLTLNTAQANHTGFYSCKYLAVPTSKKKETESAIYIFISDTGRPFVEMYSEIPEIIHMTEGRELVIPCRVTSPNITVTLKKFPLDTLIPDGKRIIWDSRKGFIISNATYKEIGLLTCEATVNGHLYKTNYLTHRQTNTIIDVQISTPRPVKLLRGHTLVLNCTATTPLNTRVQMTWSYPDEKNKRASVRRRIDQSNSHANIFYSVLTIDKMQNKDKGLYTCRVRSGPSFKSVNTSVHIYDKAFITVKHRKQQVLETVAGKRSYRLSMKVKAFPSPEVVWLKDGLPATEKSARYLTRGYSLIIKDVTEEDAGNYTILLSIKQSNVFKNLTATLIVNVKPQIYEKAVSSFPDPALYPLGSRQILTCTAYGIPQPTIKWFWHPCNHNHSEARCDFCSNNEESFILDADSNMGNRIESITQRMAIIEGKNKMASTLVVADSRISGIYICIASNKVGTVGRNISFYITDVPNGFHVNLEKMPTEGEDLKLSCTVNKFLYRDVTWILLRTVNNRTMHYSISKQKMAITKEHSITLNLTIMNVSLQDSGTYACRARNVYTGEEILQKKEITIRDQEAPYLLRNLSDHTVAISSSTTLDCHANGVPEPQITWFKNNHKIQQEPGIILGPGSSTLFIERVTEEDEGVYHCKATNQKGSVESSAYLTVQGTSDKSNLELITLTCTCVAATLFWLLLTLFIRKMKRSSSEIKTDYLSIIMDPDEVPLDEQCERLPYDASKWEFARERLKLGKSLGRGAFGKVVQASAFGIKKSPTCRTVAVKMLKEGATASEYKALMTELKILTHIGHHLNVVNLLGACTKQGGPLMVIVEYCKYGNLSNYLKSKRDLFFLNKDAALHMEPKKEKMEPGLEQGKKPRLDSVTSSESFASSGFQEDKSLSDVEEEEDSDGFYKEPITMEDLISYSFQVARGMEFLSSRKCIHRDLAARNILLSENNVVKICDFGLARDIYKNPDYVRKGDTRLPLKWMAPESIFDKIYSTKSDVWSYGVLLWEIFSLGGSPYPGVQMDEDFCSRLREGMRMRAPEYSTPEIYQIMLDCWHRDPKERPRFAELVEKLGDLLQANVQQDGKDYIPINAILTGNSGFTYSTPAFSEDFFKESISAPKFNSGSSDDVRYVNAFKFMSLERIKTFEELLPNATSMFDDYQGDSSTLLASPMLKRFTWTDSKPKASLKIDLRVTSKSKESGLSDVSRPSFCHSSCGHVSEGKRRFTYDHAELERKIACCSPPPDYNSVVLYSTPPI
Method: 3. […] The inhibition of the FLT1 activity is calculated and expressed as percentage of inhibition relative to the control activity determined in the absence of compound. The percentage of inhibition corresponding to each concentration of molecules is calculated thus: % inhibition=(mean CPM of the control wells−CPM of each)

PDGFRβ = PDGFRβ (Homo sapiens, UniProt P09619); experiment: PDGFR kinase phosphorylation activity by radioactive labeling; format: biochemical; details: read-out: PDGFRβ, concentration that inhibits 50% of the kinase activity
Sequence of PDGFRβ (P09619 33-1106, species assumed): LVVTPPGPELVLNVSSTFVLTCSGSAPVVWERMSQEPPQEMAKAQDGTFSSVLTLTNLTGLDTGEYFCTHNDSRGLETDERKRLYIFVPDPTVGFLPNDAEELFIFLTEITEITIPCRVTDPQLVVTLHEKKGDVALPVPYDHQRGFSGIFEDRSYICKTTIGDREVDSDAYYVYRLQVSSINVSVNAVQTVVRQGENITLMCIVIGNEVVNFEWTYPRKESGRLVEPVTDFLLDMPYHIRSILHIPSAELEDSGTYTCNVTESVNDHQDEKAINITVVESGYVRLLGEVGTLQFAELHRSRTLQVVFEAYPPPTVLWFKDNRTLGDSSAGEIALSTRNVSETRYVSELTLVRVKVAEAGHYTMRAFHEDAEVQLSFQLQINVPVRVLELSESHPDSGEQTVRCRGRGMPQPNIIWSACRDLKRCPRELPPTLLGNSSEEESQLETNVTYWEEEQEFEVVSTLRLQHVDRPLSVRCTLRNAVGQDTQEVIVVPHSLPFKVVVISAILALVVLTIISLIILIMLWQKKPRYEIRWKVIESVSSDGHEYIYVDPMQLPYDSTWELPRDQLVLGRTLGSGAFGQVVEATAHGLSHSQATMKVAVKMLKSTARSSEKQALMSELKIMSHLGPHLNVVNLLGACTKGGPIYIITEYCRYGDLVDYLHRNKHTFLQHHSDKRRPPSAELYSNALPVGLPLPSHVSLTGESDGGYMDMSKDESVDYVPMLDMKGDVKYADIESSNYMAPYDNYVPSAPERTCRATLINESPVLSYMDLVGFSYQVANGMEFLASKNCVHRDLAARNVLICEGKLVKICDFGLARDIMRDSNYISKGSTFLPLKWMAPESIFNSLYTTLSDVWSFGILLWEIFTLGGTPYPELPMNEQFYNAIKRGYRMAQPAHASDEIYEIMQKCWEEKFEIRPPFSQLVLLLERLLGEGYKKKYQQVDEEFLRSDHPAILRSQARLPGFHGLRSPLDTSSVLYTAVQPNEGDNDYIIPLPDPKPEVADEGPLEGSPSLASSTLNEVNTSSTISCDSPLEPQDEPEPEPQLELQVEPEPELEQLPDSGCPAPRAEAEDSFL
Method: 4. Screening of Molecules by Measuring, by Radioactive Labeling, the PDGFR Kinase Phosphorylation Activity in the Presence of PLCγ Substrate The test is carried out in a similar manner to that carried out with the FLT1 enzyme by using, instead of 13 nM of Flt1, 16 nM of PDGFR enzyme and mixed in the 96-well plates are 18 μl of GST-PDGFR enzyme at 4 mg/ml (for a purity of 80%) batch VLT802.

human Tie2 = target: T1, human Tie2 (Homo sapiens, UniProt Q02763); experiment: Tie2 kinase inhibition, phosphorylation of PLCγ substrate, scintillation Flash Plate; format: biochemical; details: read-out: Tie2, concentration that inhibits 50% of the kinase activity
T1 construct: human Tie2 corresponding to the amino acids of the intracellular domain 774-1124; made in house; host or cells: baculovirus expression (pFastBacGT)
T1 sequence (Q02763 774-1124): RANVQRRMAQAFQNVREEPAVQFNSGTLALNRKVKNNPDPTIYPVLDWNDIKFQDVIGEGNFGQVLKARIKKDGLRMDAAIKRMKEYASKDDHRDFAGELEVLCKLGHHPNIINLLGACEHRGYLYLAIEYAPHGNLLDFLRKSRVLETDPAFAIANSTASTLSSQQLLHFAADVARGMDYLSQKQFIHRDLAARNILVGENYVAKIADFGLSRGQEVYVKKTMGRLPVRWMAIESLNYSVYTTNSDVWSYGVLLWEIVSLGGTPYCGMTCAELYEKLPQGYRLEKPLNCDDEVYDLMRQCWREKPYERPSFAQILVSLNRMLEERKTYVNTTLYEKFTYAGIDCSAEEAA
Method: (§1) The inhibitory effect of the compounds is determined in an in vitro test of phosphorylation of substrate via a scintillation technique (96-well plate of basic Flash Plate type).
The coding sequence of human Tie2 corresponding to the amino acids of the intracellular domain 774-1124 was introduced into a pFastBacGT baculovirus expression vector in the form of a GST fusion protein. GST-Tie2 was purified and activated by autophosphorylation. The substrate is composed of residues 658 to 850 of the PLCγ expressed and purified in the form of a GST fusion protein.
The kinase activity of Tie2 is measured in a MOPS 20 mM pH 7.4 buffer, containing 10 mM MgCl2, 10 mM MnCl2 and 1 mM DTT. The compounds are initially diluted in 100% DMSO, then prepared as a 10× solution in 30% DMSO/70% buffer. […] The radioactivity in each well is measured using a Trilux-βWallac radioactivity counter.
(§2) The background noise is determined by measuring the radioactivity in four different wells containing ATP (radiolabeled and cold) and the substrate, in the absence of enzyme and of compound. The control activity is measured in four different wells containing all the reagents, but in the absence of compound.
The inhibition of the Tie2 activity is calculated and expressed as a percentage of inhibition relative to the control activity determined in the absence of compound.

human KDR enzyme = target: T2, human KDR enzyme (Homo sapiens, UniProt P35968); experiment: KDR kinase inhibition, phosphorylation of PLCγ substrate, scintillation Flash Plate; format: biochemical; details: read-out: KDR, concentration that inhibits 50% of the kinase activity
T2 construct: The cytoplasmic domain (residues 790 to 1356) of the human KDR enzyme; GST; made in house; host or cells: SF21 insect cells (baculovirus, pFastBac)
T2 sequence (P35968 790-1356): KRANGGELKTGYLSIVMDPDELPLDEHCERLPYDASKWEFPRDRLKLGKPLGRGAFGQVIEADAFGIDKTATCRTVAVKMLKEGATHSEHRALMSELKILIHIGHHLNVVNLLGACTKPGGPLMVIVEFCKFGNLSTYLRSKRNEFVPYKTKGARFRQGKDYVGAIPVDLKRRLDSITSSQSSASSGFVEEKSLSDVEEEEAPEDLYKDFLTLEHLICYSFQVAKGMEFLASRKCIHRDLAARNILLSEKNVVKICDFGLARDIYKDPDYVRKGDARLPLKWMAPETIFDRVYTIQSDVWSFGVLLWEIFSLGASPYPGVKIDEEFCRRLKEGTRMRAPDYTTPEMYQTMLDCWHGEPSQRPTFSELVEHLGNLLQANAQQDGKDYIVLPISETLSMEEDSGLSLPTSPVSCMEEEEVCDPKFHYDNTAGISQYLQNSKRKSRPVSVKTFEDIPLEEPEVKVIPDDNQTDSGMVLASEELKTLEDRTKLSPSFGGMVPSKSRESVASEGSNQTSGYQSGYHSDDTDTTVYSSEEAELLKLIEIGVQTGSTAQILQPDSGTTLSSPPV
Method: as §1
The cytoplasmic domain (residues 790 to 1356) of the human KDR enzyme was cloned in the form of a GST fusion in the pFastBac baculovirus expression vector. The protein was expressed in the SF21 cells, purified and activated by autophosphorylation. The substrate is composed of residues 658 to 850 of the PLCγ expressed and purified in the form of a GST fusion protein.
The KDR kinase activity is measured in the buffer 20 mM MOPS, 10 mM MgCl2, 10 mM MnCl2, 1 mM DTT, pH=7.4. The compounds are initially diluted in 100% DMSO, then prepared as a 10× solution in 30% DMSO/70% buffer. […] The radioactivity in each well is measured using a Trilux-βWallac radioactivity counter.
as §2
The inhibition of the KDR activity with the compound of the invention is expressed as a percentage of inhibition of the control activity determined in the absence of compound.

SMILES	classification of the intrinsic clearance (human hepatocytes)	intrinsic clearance value (human hepatocytes)	inter-individual variability of intrinsic clearance (human hepatocytes)	pIC50 (FLT1)	pIC50 (PDGFRβ)	pIC50 (human Tie2)	pIC50 (human KDR enzyme)
Cl.NC(=O)c1n[nH]cc1NCc1cc(F)cc(NC(=O)Nc2ccc(C(F)(F)F)cc2Cl)c1 [Example 1, 4-{3-[3-(2-Chloro-4-trifluoromethylphenyl)ureido]-5-fluorobenzylamino}-1H-pyrazole-3-carboxamide hydrochloride]	intermediate (Clint<0.040 ml·h^−1·10^−6 cell: intermediate intrinsic clearance)	0.057 ml/hour/million of cells	low	8.52	7.96	7.44	8.52
Cl.NC(=O)c1n[nH]cc1NCc1cc(F)cc(NC(=O)Nc2ccc(C(F)(F)F)cc2F)c1 [Example 2, 4-{3-[3-(2-Fluoro-4-trifluoromethylphenyl)ureido]-5-fluorobenzylamino}-1H-pyrazole-3-carboxamide hydrochloride]	intermediate (Clint<0.040 ml·h^−1·10^−6 cell: intermediate intrinsic clearance)	0.055 ml/h/million of cells	low	8.89	7.70	7.41	8.70

Source: US8367715B2, “Pyrazole derivatives, preparation thereof, and therapeutic use thereof” (priority 2009, dated 2013)
